# ChEMBL document CHEMBL5257033, “Pyrrolidinone and pyrrolidine derivatives: Evaluation as inhibitors of InhA and Mycobacterium tuberculosis” (Eur J Med Chem, 2016)
# Several values for one entry are separate records, joined by “and”; a condition that tells them apart may be missing. Equal entries are not always repeated. Activity calls are given as the source filed them. The rule behind the calls is not given here.
# Tests used:
# [1] = system: Mycobacterium tuberculosis; assay: Antimycobacterial activity against wild type Mycobacterium tuberculosis H37Rv assessed as bacterial growth inhibition measured after 21 days by microbroth dilution method; type: functional; settings: for MIC: 504 h, time 21 day
# [2] = system: MRC5; assay: (§1) Cytotoxicity against human MRC5 cells assessed as reduction in cell number measured after 72 hrs by Hoechst 33342 staining based microscopic analysis; type: toxicity; settings: mrc5, 72 h
# [3] = system: Mycolicibacterium smegmatis; assay: Antimycobacterial activity against Mycobacterium smegmatis MC2 155 assessed as reduction in trehalose monomycolates level at 6.2 uM incubated for 16 hrs by TLC analysis; type: functional, organism-based
# [4] = system: Mycolicibacterium smegmatis; assay: Antimycobacterial activity against Mycobacterium smegmatis MC2 155 assessed as reduction in phosphatidylethanolamine synthesis at 6.2 uM incubated for 16 hrs by TLC analysis; type: functional, organism-based
# [5] = system: Mycolicibacterium smegmatis; assay: Disruption of trans-membrane electrical charge gradient of proton motive force in Mycobacterium smegmatis by DiSC3(5)-probe based fluorescence assay; type: functional, organism-based
# [6] = system: Mycolicibacterium smegmatis; assay: Antimycobacterial activity against Mycobacterium smegmatis MC2 155 assessed as reduction in trehalose dimycolates level at 6.2 uM incubated for 16 hrs by TLC analysis; type: functional, organism-based
# [7] = system: Mycolicibacterium smegmatis; assay: Antimycobacterial activity against Mycobacterium smegmatis MC2 155 assessed as reduction in cell wall bound mycolic acid methyl esters at 6.2 uM incubated for 16 hrs by TLC analysis; type: functional, organism-based
# [8] = system: Mycolicibacterium smegmatis; assay: Antimycobacterial activity against Mycobacterium smegmatis MC2 155 assessed as inhibition of bacterial growth at 6.2 uM incubated for 16 hrs relative to control; type: functional
# [9] = system: Mycobacterium tuberculosis; assay: Antimycobacterial activity against 14C acetate-labeled Mycobacterium tuberculosis H37Ra assessed as reduction in trehalose monomycolates level at 3.7 uM incubated for 24 hrs by autoradiography based TLC analysis; type: functional, organism-based
# [10] = system: Mycobacterium tuberculosis; assay: Antimycobacterial activity against 14C acetate-labeled Mycobacterium tuberculosis H37Ra assessed as reduction in trehalose dimycolates level at 3.7 uM incubated for 24 hrs by autoradiography based TLC analysis; type: functional, organism-based
# [11] = target: T1, Enoyl-[acyl-carrier-protein] reductase [NADH] (Mycobacterium tuberculosis) (UniProt P9WGR1); assay: Inhibition of Mycobacterium tuberculosis InhA at 50 uM using trans-2-dodecenoyl-coenzyme A as substrate in presence of NADH
# T1 sequence (whole entry): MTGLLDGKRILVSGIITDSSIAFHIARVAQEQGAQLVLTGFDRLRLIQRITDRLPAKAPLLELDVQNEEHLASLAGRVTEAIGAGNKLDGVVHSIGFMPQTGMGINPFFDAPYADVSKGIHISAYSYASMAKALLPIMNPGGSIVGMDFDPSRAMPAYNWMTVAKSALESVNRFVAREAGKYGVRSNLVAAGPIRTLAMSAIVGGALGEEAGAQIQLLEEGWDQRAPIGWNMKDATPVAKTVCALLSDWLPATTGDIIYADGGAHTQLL
# [12] = as §1; type: toxicity; settings: MRC5 cells, read-out: LD50
# [13] = system: Mycolicibacterium smegmatis; assay: Antimycobacterial activity against Mycobacterium smegmatis MC2 155 assessed as inhibition of bacterial growth at 2 uM incubated for 16 hrs relative to control; type: functional
# [14] = system: Mycolicibacterium smegmatis; assay: Antimycobacterial activity against Mycobacterium smegmatis MC2 155 assessed as inhibition of bacterial growth at 5 uM incubated for 16 hrs relative to control; type: functional
# [15] = system: Mycolicibacterium smegmatis; assay: Antimycobacterial activity against Mycobacterium smegmatis MC2 155 assessed as inhibition of bacterial growth at 10 uM incubated for 16 hrs relative to control; type: functional
# [16] = system: Mycolicibacterium smegmatis; assay: Disruption of trans-membrane electrical charge gradient of proton motive force in Mycobacterium smegmatis at 30 uM by DiSC3(5)-probe based fluorescence assay; type: functional, organism-based
# [17] = target: T1, Enoyl-[acyl-carrier-protein] reductase [NADH] (Mycobacterium tuberculosis); assay: Inhibition of Mycobacterium tuberculosis InhA at 5 uM using trans-2-dodecenoyl-Coenzyme A as substrate in presence of NADH relative to control
# [18] = system: Mycobacterium tuberculosis; assay: Antimycobacterial activity against 14C acetate-labeled Mycobacterium tuberculosis H37Ra assessed as inhibition of bacterial growth at 42 uM incubated for 24 hrs by autoradiography based TLC analysis relative to control; type: functional
# [19] = system: Mycolicibacterium smegmatis; assay: Antimycobacterial activity against Mycobacterium smegmatis MC2 155 assessed as inhibition of bacterial growth at 16.8 uM incubated for 16 hrs relative to control; type: functional
# [20] = system: Mycolicibacterium smegmatis; assay: Antimycobacterial activity against Mycobacterium smegmatis MC2 155 assessed as reduction in cell wall bound mycolic acid methyl esters at 16.8 uM incubated for 16 hrs by TLC analysis; type: functional, organism-based
# [21] = system: Mycobacterium tuberculosis; assay: Antimycobacterial activity against 14C acetate-labeled Mycobacterium tuberculosis H37Ra assessed as reduction in trehalose monomycolates level at 42 to 84 uM incubated for 24 hrs by autoradiography based TLC analysis; type: functional, organism-based; settings: dose 42-84 µM
# [22] = system: Mycobacterium tuberculosis; assay: Antimycobacterial activity against 14C acetate-labeled Mycobacterium tuberculosis H37Ra assessed as reduction in trehalose dimycolates level at 42 to 84 uM incubated for 24 hrs by autoradiography based TLC analysis; type: functional, organism-based; settings: dose 42-84 µM
# [23] = system: Mycolicibacterium smegmatis; assay: Antimycobacterial activity against Mycobacterium smegmatis MC2 155 assessed as reduction in trehalose dimycolates level at 16.8 uM incubated for 16 hrs by TLC analysis; type: functional, organism-based
# [24] = system: Escherichia coli; assay: Antibacterial activity against Escherichia coli BL21(DE3) assessed as reduction in phosphatidylethanolamine incubated for 4 hrs by TLC analysis; type: functional, organism-based
# [25] = system: Escherichia coli; assay: Antibacterial activity against Escherichia coli BL21(DE3) assessed as inhibition of bacterial growth incubated for 4 hrs; type: functional, organism-based; settings: dose 35-140 µM
# [26] = system: Mycolicibacterium smegmatis; assay: Antimycobacterial activity against Mycobacterium smegmatis MC2 155 assessed as reduction in trehalose monomycolates level at 16.8 uM incubated for 16 hrs by TLC analysis; type: functional, organism-based
# [27] = system: Mycolicibacterium smegmatis; assay: Antimycobacterial activity against Mycobacterium smegmatis MC2 155 assessed as reduction in phosphatidylethanolamine synthesis at 16.8 uM incubated for 16 hrs by TLC analysis; type: functional, organism-based
# [28] = system: Mycobacterium tuberculosis; assay: Antimycobacterial activity against 14C acetate-labeled Mycobacterium tuberculosis H37Ra assessed as reduction in cell wall bound mycolic acid level at 42 to 84 uM incubated for 24 hrs by autoradiography based TLC analysis; type: functional, organism-based; settings: dose 42-84 µM
# [29] = system: Mycobacterium tuberculosis; assay: Antimycobacterial activity against 14C acetate-labeled Mycobacterium tuberculosis H37Ra assessed as inhibition of bacterial growth at 84 uM incubated for 24 hrs by autoradiography based TLC analysis relative to control; type: functional; settings: AT84
# [30] = system: Mycolicibacterium smegmatis; assay: Disruption of trans-membrane electrical charge gradient of proton motive force in Mycobacterium smegmatis up to 280 uM by DiSC3(5)-probe based fluorescence assay; type: functional, organism-based
compound,measurement,setting,value
O=C1C(C2c3ccccc3-c3ccccc32)CCN1Cc1ccc(Cl)cc1 (stereo unspecified),MIC,[1],69 µM and 25 µg/mL
same,Activity,[2],Non-Toxic
O=C(Nc1ccc(F)c(F)c1F)NC12CC3CC(CC(C3)C1)C2,Activity,[3],inactive
same,Activity,[4],Active
same,Activity,[5],inactive
same,Activity,[6],Active
same,Activity,[7],Active
same,inhibition at 6.2 µM,[8],60%
CCCCCCCCCN1CCC(C2c3ccccc3-c3ccccc32)C1=O (stereo unspecified),MIC,[1],5 µg/mL and 13.3 µM
same,Activity,[2],Non-Toxic
O=C1C(C2c3ccccc3-c3ccccc32)CCN1c1ccc(F)cc1 (stereo unspecified),MIC,[1],14.6 µM and 5 µg/mL
CCCCCCCCC(=O)N1CCC(C2c3ccccc3-c3ccccc32)C1 (stereo unspecified),MIC,[1],21.3 µM and 8 µg/mL
O=C(c1ccccc1)N1CCC(C2c3ccccc3-c3ccccc32)C1=O (stereo unspecified),MIC,[1],> 45 µM and > 16 µg/mL
NNC(=O)c1ccncc1 [ISONIAZID],MIC,[1],0.025 µg/mL
same,Activity,[9],Active
same,Activity,[10],Active
CCCCCCCCC(=O)N1CCC(C2c3ccccc3-c3ccccc32)C1=O (stereo unspecified),MIC,[1],4 µg/mL and 10.3 µM
O=C1C(C2c3ccccc3-c3ccccc32)CCN1c1cc(Cl)cc(Cl)c1 (stereo unspecified),Activity,[1]; time 21.0 day,inactive
same,inhibition,[11],inactive
c1ccc(CCN2CCC(C3c4ccccc4-c4ccccc43)C2)cc1 (stereo unspecified),MIC,[1],14.7 µM and 5 µg/mL
same,CC50 at 72 h,[12],18.9 µM
O=C1C(C2c3ccccc3-c3ccccc32)CCN1Cc1ccccc1 (stereo unspecified),MIC,[1],> 74 µM and > 25 µg/mL
N#CC(C#N)=NNc1cccc(Cl)c1 [CARBONYL CYANIDE M-CHLOROPHENYLHYDRAZONE],inhibition at 2 µM,[13],0.2%
same,inhibition at 5 µM,[14],9%
same,inhibition at 10 µM,[15],66%
same,Activity,[16],Active
CCCCCCCCCN1CCC(C2c3ccccc3-c3ccccc32)C1 (stereo unspecified),MIC,[1],1 µg/mL and 2.8 µM
Clc1cc(Cl)cc(N2CCC(C3c4ccccc4-c4ccccc43)C2)c1 (stereo unspecified),MIC,[1],66 µM and 25 µg/mL
same,Activity,[2],Non-Toxic
O=C(c1ccccc1)N1CCC(C2c3ccccc3-c3ccccc32)C1 (stereo unspecified),MIC,[1],> 16 µg/mL
same,inhibition,[17],50%
Fc1ccc(N2CCC(C3c4ccccc4-c4ccccc43)C2)cc1 (stereo unspecified),MIC,[1],15.2 µM and 5 µg/mL
O=C1C(C2c3ccccc3-c3ccccc32)CCN1CCc1ccccc1 (stereo unspecified),MIC,[1],1 µg/mL and 2.8 µM
Clc1ccc(CN2CCC(C3c4ccccc4-c4ccccc43)C2)cc1 (stereo unspecified),inhibition at 42 µM,[18],43%
same,inhibition at 16.8 µM,[19],57%
same,Activity,[20],Active
same,MIC,[1],1.4 µM and 0.5 µg/mL
same,Activity,[21],inactive
same,Activity,[22],Active
same,CC50 at 72 h,[12],35 µM
same,Activity,[23],Active
same,Activity,[24],Active
same,inhibition,[25],Dose-Dependent Effect
same,Activity,[26],inactive
same,Activity,[27],Active
same,Activity,[28],Active
same,inhibition at 84 µM,[29],48%
same,Activity,[30],inactive
O=C(c1ccc2[nH]ccc2c1)N1CCN(C2c3ccccc3-c3ccccc32)CC1,MIC,[1],> 16 µg/mL and > 40.7 µM
Oc1cc(Cl)ccc1Oc1ccc(Cl)cc1Cl [TRICLOSAN],MIC,[1],34.5 µM and 10 µg/mL
c1ccc(CN2CCC(C3c4ccccc4-c4ccccc43)C2)cc1 (stereo unspecified),MIC,[1],5 µg/mL and 15.4 µM
